# System: HT-29 colorectal cancer cells
# Assay: MTT anti-proliferative assay against HT-29 cells
# Type: cell-based, human
# Conditions: Homo sapiens, HT-29, 48 h, MTT, 48 h, 0–100 µM; value with 95% confidence interval; read-out: HT-29 IC50 μM (95% CI)
# Experimental: (§1) The toxicity of the thirty-six compounds was determined in vitro by means of the MTT assay. Doxorubicin, a drug widely used to treat different types of cancer, was employed as a positive control, whereas the solvent (DMSO) was used as negative control.
# (§2) Test compounds were dissolved in DMSO to obtain stock solutions that were maintained as small aliquots at −20 °C. At time of drug addition, an aliquot was thawed and diluted to obtain the desired final maximum test concentration of 100 μM, with complete medium. The final percentage of DMSO in the wells was less than 1% (v/v). […] Anti-Proliferative Assay
# (§3) Doxorubicin, a drug widely used to treat different types of cancer, was used as a positive control. After 48 h, the medium was removed and cells were incubated with MTT solution (0.25 mg/mL). Four hours later, the medium was carefully aspired and formazan crystals were dissolved in DMSO (100 μL). The OD550 was measured using a plate reader (Multiskan Go, Thermo Scientific, Waltham, MA, USA). […] The selectivity index (SI), was calculated as a ratio of IC50Fibroblast/IC50HT-29cells.
# (§4) The results are expressed as the mean of triplicate measurements in at least two independent experiments.
row,Compound,IC50 [µM]
1,"CC1=C(Cl)C(=O)c2ccccc2C1=O [Compound 3c, 2-Chloro-3-methylnaphthalene-1,4-dione]",11
2,"CCc1cc2c([nH]1)C(=O)c1ccccc1C2=O [Compound 2c, 2-Ethyl-1H-benzo[f]indole-4,9-dione]",40.2
3,"O=C1c2ccccc2C(=O)C2OC12 (stereo not shown) [Compound 1a, 1a,7a-Dihydronaphtho[2,3-b]oxirene-2,7-dione]",10.8
4,"CCc1[nH]c2c(c1CC)C(=O)c1ccccc1C2=O [Compound 2d, 2,3-Diethyl-1H-benzo[f]indole-4,9-dione]",68.7
5,"CCN(CC)C(=O)c1cc2c(o1)C(=O)c1ccccc1C2=O [Compound 6, N,N-diethyl-4,9-dioxo-4,9-dihydronaphtho[2,3-b]furan-2-carboxamide]",2.67
6,"Cc1c(C(C)C)[nH]c2c1C(=O)c1ccccc1C2=O [Compound 2e, 3-Methyl-2-(propan-2-yl)-1H-benzo[f]indole-4,9-dione]",> 100
7,"CC12OC1C(=O)c1ccccc1C2=O (stereo not shown) [Compound 3b, 1a-Methyl-1a,7a-dihydronaphtho[2,3-b]oxirene-2,7-dione]",57.3
8,"O=C1c2ccccc2C(=O)c2[nH]ccc21 [Compound 2a, 1H-Benzo[f]indole-4,9-dione]",> 100

# Other lines, results leading:
row,IC50 [µM],Compound
1,13.9,"COC(=O)c1nc2c(s1)C(=O)c1ccccc1C2=O [Compound 5c, Methyl 4,9-Dioxo-4,9-dihydronaphtho[2,3-d][1,3]thiazole-2-carboxylate]"
2,23.7 to 88.1,"CCCCc1cc2c(o1)C(=O)c1ccccc1C2=O [Compound 4f, 2-Butylnaphtho[2,3-b]furan-4,9-dione]"
3,24.9,"CCc1cc2c(o1)C(=O)c1ccccc1C2=O [Compound 4e, 2-Ethylnaphtho[2,3-b]furan-4,9-dione]"
4,14.8,"O=C1C(=O)c2ccccc2C2=C1CC(c1ccccc1)O2 (stereo not shown) [Compound 4r, 2-Phenyl-2,3-dihydronaphtho[1,2-b]furan-4,5-dione]"
5,88.1,"C=CC1(C)CC2=C(O1)c1ccccc1C(=O)C2=O (stereo not shown) [Compound 4t, 2-Ethenyl-2-methyl-2,3-dihydronaphtho[1,2-b]furan-4,5-dione]"
6,9.16,"CCCCc1cc2c(o1)-c1ccccc1C(=O)C2=O [Compound 4i, 2-Butylnaphtho[1,2-b]furan-4,5-dione]"
7,4.61,"CC(=O)c1cc2c(o1)C(=O)c1ccccc1C2=O [Compound 4m, 2-Acetylnaphtho[2,3-b]furan-4,9-dione]"
8,> 100,"CC/C=C/C1=C(O)C(=O)c2ccccc2C1=O [Compound 4b, 2-[(1E)-But-1-en-1-yl]-3-hydroxynaphthalene-1,4-dione]"
9,18.1,"CC1(C)OC2=C(C(=O)C(=O)c3ccccc32)C1(C)C [Compound 4s, 2,2,3,3-Tetramethyl-2,3-dihydronaphtho[1,2-b]furan-4,5-dione]"

# Same assay, conditions: Homo sapiens, HT-29, −logIC50 against HT-29; CoMFA training and test sets; read-out: pIC50 Experimental (converted)
row,Compound,IC50 [µM]
1,"CC1=C(Cl)C(=O)c2ccccc2C1=O [Compound 3c, 2-Chloro-3-methylnaphthalene-1,4-dione]",11
2,"CCc1cc2c([nH]1)C(=O)c1ccccc1C2=O [Compound 2c, 2-Ethyl-1H-benzo[f]indole-4,9-dione]",40.2
3,"O=C1c2ccccc2C(=O)C2OC12 (stereo not shown) [Compound 1a, 1a,7a-Dihydronaphtho[2,3-b]oxirene-2,7-dione]",10.8
4,"CCc1[nH]c2c(c1CC)C(=O)c1ccccc1C2=O [Compound 2d, 2,3-Diethyl-1H-benzo[f]indole-4,9-dione]",68.7
5,"CCN(CC)C(=O)c1cc2c(o1)C(=O)c1ccccc1C2=O [Compound 6, N,N-diethyl-4,9-dioxo-4,9-dihydronaphtho[2,3-b]furan-2-carboxamide]",2.67

# Continued, values first:
row,IC50 [µM],Compound
1,13.9,"COC(=O)c1nc2c(s1)C(=O)c1ccccc1C2=O [Compound 5c, Methyl 4,9-Dioxo-4,9-dihydronaphtho[2,3-d][1,3]thiazole-2-carboxylate]"
2,21.7,"CCCCc1cc2c(o1)C(=O)c1ccccc1C2=O [Compound 4f, 2-Butylnaphtho[2,3-b]furan-4,9-dione]"
3,24.9,"CCc1cc2c(o1)C(=O)c1ccccc1C2=O [Compound 4e, 2-Ethylnaphtho[2,3-b]furan-4,9-dione]"
4,9.16,"CCCCc1cc2c(o1)-c1ccccc1C(=O)C2=O [Compound 4i, 2-Butylnaphtho[1,2-b]furan-4,5-dione]"
5,18.1,"CC1(C)OC2=C(C(=O)C(=O)c3ccccc32)C1(C)C [Compound 4s, 2,2,3,3-Tetramethyl-2,3-dihydronaphtho[1,2-b]furan-4,5-dione]"

# Same assay, conditions: MTT, 48 h, 0–100 µM; value with 95% confidence interval; read-out: HT-29 IC50 μM (95% CI)
row,IC50 [µM],Compound
1,21.7,"CCCCc1cc2c(o1)C(=O)c1ccccc1C2=O [Compound 4f, 2-Butylnaphtho[2,3-b]furan-4,9-dione]"

# Same assay, conditions: SI = IC50Fibroblast/IC50HT-29cells
row,Compound,Selectivity Index
1,"CC1=C(Cl)C(=O)c2ccccc2C1=O [Compound 3c, 2-Chloro-3-methylnaphthalene-1,4-dione]",0.90
2,"COC(=O)c1nc2c(s1)C(=O)c1ccccc1C2=O [Compound 5c, Methyl 4,9-Dioxo-4,9-dihydronaphtho[2,3-d][1,3]thiazole-2-carboxylate]",0.52
3,"CCCCc1cc2c(o1)C(=O)c1ccccc1C2=O [Compound 4f, 2-Butylnaphtho[2,3-b]furan-4,9-dione]",0.46
4,"CCc1cc2c(o1)C(=O)c1ccccc1C2=O [Compound 4e, 2-Ethylnaphtho[2,3-b]furan-4,9-dione]",0.80
5,"O=C1C(=O)c2ccccc2C2=C1CC(c1ccccc1)O2 (stereo not shown) [Compound 4r, 2-Phenyl-2,3-dihydronaphtho[1,2-b]furan-4,5-dione]",0.56
6,"CCc1[nH]c2c(c1CC)C(=O)c1ccccc1C2=O [Compound 2d, 2,3-Diethyl-1H-benzo[f]indole-4,9-dione]",0.75
7,"C=CC1(C)CC2=C(O1)c1ccccc1C(=O)C2=O (stereo not shown) [Compound 4t, 2-Ethenyl-2-methyl-2,3-dihydronaphtho[1,2-b]furan-4,5-dione]",0.22
8,"CCCCc1cc2c(o1)-c1ccccc1C(=O)C2=O [Compound 4i, 2-Butylnaphtho[1,2-b]furan-4,5-dione]",0.42
9,"CCN(CC)C(=O)c1cc2c(o1)C(=O)c1ccccc1C2=O [Compound 6, N,N-diethyl-4,9-dioxo-4,9-dihydronaphtho[2,3-b]furan-2-carboxamide]",0.56
10,"CC(=O)c1cc2c(o1)C(=O)c1ccccc1C2=O [Compound 4m, 2-Acetylnaphtho[2,3-b]furan-4,9-dione]",0.76
11,"CC1(C)OC2=C(C(=O)C(=O)c3ccccc32)C1(C)C [Compound 4s, 2,2,3,3-Tetramethyl-2,3-dihydronaphtho[1,2-b]furan-4,5-dione]",1.10

# Same assay, conditions: classified by HT-29 IC50
row,Compound,Cytotoxic activity category against HT-29
1,"CCc1cc2c([nH]1)C(=O)c1ccccc1C2=O [Compound 2c, 2-Ethyl-1H-benzo[f]indole-4,9-dione]",moderately active (moderately active (20 µM < IC50 ≤ 100 µM))
2,"CCCCc1cc2c(o1)-c1ccccc1C(=O)C2=O [Compound 4i, 2-Butylnaphtho[1,2-b]furan-4,5-dione]",highly active
3,"CCN(CC)C(=O)c1cc2c(o1)C(=O)c1ccccc1C2=O [Compound 6, N,N-diethyl-4,9-dioxo-4,9-dihydronaphtho[2,3-b]furan-2-carboxamide]",highly active
4,"CC(=O)c1cc2c(o1)C(=O)c1ccccc1C2=O [Compound 4m, 2-Acetylnaphtho[2,3-b]furan-4,9-dione]",highly active

# System: fibroblasts PCS-201-012
# Assay: MTT cytotoxicity assay against normal dermal fibroblasts
# Type: cell-based
# Conditions: Fibroblast, value with 95% confidence interval, read-out: PCS-201-012 IC50 μM (95% CI)
# Experimental: as §1, §2, §3, §4
row,Compound,IC50 [µM]
1,"CC1=C(Cl)C(=O)c2ccccc2C1=O [Compound 3c, 2-Chloro-3-methylnaphthalene-1,4-dione]",9.92
2,"CCc1cc2c([nH]1)C(=O)c1ccccc1C2=O [Compound 2c, 2-Ethyl-1H-benzo[f]indole-4,9-dione]",79.4
3,"COC(=O)c1nc2c(s1)C(=O)c1ccccc1C2=O [Compound 5c, Methyl 4,9-Dioxo-4,9-dihydronaphtho[2,3-d][1,3]thiazole-2-carboxylate]",7.26
4,"CCCCc1cc2c(o1)C(=O)c1ccccc1C2=O [Compound 4f, 2-Butylnaphtho[2,3-b]furan-4,9-dione]",10
5,"CCc1cc2c(o1)C(=O)c1ccccc1C2=O [Compound 4e, 2-Ethylnaphtho[2,3-b]furan-4,9-dione]",20.1
6,"O=C1C(=O)c2ccccc2C2=C1CC(c1ccccc1)O2 (stereo not shown) [Compound 4r, 2-Phenyl-2,3-dihydronaphtho[1,2-b]furan-4,5-dione]",8.2
7,"CCc1[nH]c2c(c1CC)C(=O)c1ccccc1C2=O [Compound 2d, 2,3-Diethyl-1H-benzo[f]indole-4,9-dione]",51.5
8,"C=CC1(C)CC2=C(O1)c1ccccc1C(=O)C2=O (stereo not shown) [Compound 4t, 2-Ethenyl-2-methyl-2,3-dihydronaphtho[1,2-b]furan-4,5-dione]",19.7
9,"CCCCc1cc2c(o1)-c1ccccc1C(=O)C2=O [Compound 4i, 2-Butylnaphtho[1,2-b]furan-4,5-dione]",3.86
10,"CCN(CC)C(=O)c1cc2c(o1)C(=O)c1ccccc1C2=O [Compound 6, N,N-diethyl-4,9-dioxo-4,9-dihydronaphtho[2,3-b]furan-2-carboxamide]",1.49
11,"CC(=O)c1cc2c(o1)C(=O)c1ccccc1C2=O [Compound 4m, 2-Acetylnaphtho[2,3-b]furan-4,9-dione]",3.5
12,"CC1(C)OC2=C(C(=O)C(=O)c3ccccc32)C1(C)C [Compound 4s, 2,2,3,3-Tetramethyl-2,3-dihydronaphtho[1,2-b]furan-4,5-dione]",19.9

# System: not given
# Assay: not given
# Conditions: not given
row,Compound,melting point [°C]
1,"CC1=C(Cl)C(=O)c2ccccc2C1=O [Compound 3c, 2-Chloro-3-methylnaphthalene-1,4-dione]",158
2,"CCc1cc2c([nH]1)C(=O)c1ccccc1C2=O [Compound 2c, 2-Ethyl-1H-benzo[f]indole-4,9-dione]",200 to 207
3,"CCc1[nH]c2c(c1CC)C(=O)c1ccccc1C2=O [Compound 2d, 2,3-Diethyl-1H-benzo[f]indole-4,9-dione]",205 to 209
4,"Cc1c(C(C)C)[nH]c2c1C(=O)c1ccccc1C2=O [Compound 2e, 3-Methyl-2-(propan-2-yl)-1H-benzo[f]indole-4,9-dione]",245 to 248
5,"O=C1c2ccccc2C(=O)c2[nH]ccc21 [Compound 2a, 1H-Benzo[f]indole-4,9-dione]",281 to 283

# Results, then the molecule that gave them:
row,melting point [°C],Compound
1,150,"C=CC1(C)CC2=C(O1)c1ccccc1C(=O)C2=O (stereo not shown) [Compound 4t, 2-Ethenyl-2-methyl-2,3-dihydronaphtho[1,2-b]furan-4,5-dione]"
2,64,"CCCCc1cc2c(o1)-c1ccccc1C(=O)C2=O [Compound 4i, 2-Butylnaphtho[1,2-b]furan-4,5-dione]"
3,107,"CC/C=C/C1=C(O)C(=O)c2ccccc2C1=O [Compound 4b, 2-[(1E)-But-1-en-1-yl]-3-hydroxynaphthalene-1,4-dione]"
4,91,"CC1(C)OC2=C(C(=O)C(=O)c3ccccc32)C1(C)C [Compound 4s, 2,2,3,3-Tetramethyl-2,3-dihydronaphtho[1,2-b]furan-4,5-dione]"

# Source: paper PMC6017957, “Synthesis, Anti-Proliferative Activity Evaluation and 3D-QSAR Study of Naphthoquinone Derivatives as Potential Anti-Colorectal Cancer Agents” (Molecules : A Journal of Synthetic Chemistry and Natural …, 2018)
